US20020137929A1, “1 - (3-heterocyclylphenyl) isothiourea, -isourea, -guanidine and -amidine herbicidal agents” (Intellectual Property Department, BASF Aktiengesellschaft, priority 1998, published 2002)

Tests used:
[1] = system: GALAP (Galium); assay: Preemergence herbicidal evaluation; format: in vivo, Galium aparine; conditions: rated 4-5 weeks after treatment
Procedure, shortened: (§1)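 Sown cups got a single aqueous acetone spray of test compound (roughly 0.0156–0.500 kg/ha) before seedlings emerged. Evaluation, 4–5 weeks on, used a 0–9 visual scale covering plant stand, vigor, size, malformation, chlorosis and general appearance compared with controls.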

[2] = system: AMBEL (Ragweed, Common); assay: Postemergence herbicidal evaluation; format: in vivo, Ambrosia artemisifolia
Procedure, shortened: (§2)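 Rate range approx. 0.0156–0.500 kg/ha. Foliar application at 40 psi to ~2-week seedlings; surfactant 0.5% TWEEN 20 in 50/50 acetone/water. Evaluation 4–5 wk post-treatment by 0–9 visual injury score, means of replicate tests.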

[3] = system: TRZAWR (Wheat, Winter, cv Riband); assay: Postemergence herbicidal evaluation; format: in vivo, Triticum aestivum
Procedure, shortened: as §2

[4] = system: SAGPY (Arrowhead (Pygmaea)); assay: Preemergence weed control under flooded paddy conditions; format: in vivo, Sagittaria pygmaea; conditions: rated 3-4 weeks after treatment
Procedure, shortened: (§3)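 Greenhouse paddy assay. Acetone/water (50/50 v/v) solutions dosed into flood water, equivalent to about 0.0313 to 0.500 kg/ha active ingredient, over seeds planted 0.5 cm deep in silt loam. Score: 0-9 visual, based on stand, vigor, malformation, size and chlorosis, 3 to 4 weeks after treatment.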

[5] = system: SETVI (Foxtail, Green); assay: Preemergence herbicidal evaluation; format: in vivo, Setaria viridis; conditions: rated 4-5 weeks after treatment
Procedure, shortened: as §1

[6] = system: ECHORC (Watergrass (Calif.)); assay: Postemergence weed control under flooded paddy conditions; format: in vivo, Echinochloa oryzoides; conditions: postemergence weeds, 3-4 weeks after treatment
Procedure, shortened: (§4)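 Injury ratings (0–9 scale covering stand, vigor, malformation, size, chlorosis and overall appearance versus control) were made three to four weeks after treatment. Test material, about 0.0313 to 0.500 kg/ha a.i. in 50/50 v/v aqueous/acetone, was added to flood water 1.5 to 3 cm deep over 3 to 5 cm weeds and 1.5 to 2.5 leaf rice.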

[7] = system: GALAP (Galium); assay: Postemergence herbicidal evaluation; format: in vivo, Galium aparine
Procedure, shortened: as §2

[8] = system: CASOB (Sicklepod); assay: Postemergence herbicidal evaluation; format: in vivo, Cassia obtusifolia
Procedure, shortened: as §2

[9] = system: SAGPY (Arrowhead (Pygmaea)); assay: Postemergence weed control under flooded paddy conditions; format: in vivo, Sagittaria pygmaea; conditions: postemergence weeds, 3-4 weeks after treatment
Procedure, shortened: as §4

[10] = system: GLXMAW (Soybean, Williams); assay: Postemergence herbicidal evaluation; format: in vivo, Glycine max, (L.) Merr. cv Williams
Procedure, shortened: as §2

[11] = system: MOOVA (Monochoria); assay: Preemergence weed control under flooded paddy conditions; format: in vivo, Monochoria vaginalis; conditions: rated 3-4 weeks after treatment
Procedure, shortened: as §3

[12] = system: ORYSAT (Rice, Tebonnet); assay: Preemergence herbicidal evaluation; format: in vivo, Oryza sativa, (L.) Tebonnet; conditions: rated 4-5 weeks after treatment
Procedure, shortened: as §1

[13] = system: CYPSE (Flatsedge); assay: Preemergence weed control under flooded paddy conditions; format: in vivo, Cyperus serotinus; conditions: rated 3-4 weeks after treatment
Procedure, shortened: as §3

[14] = system: ECHORC (Watergrass (Calif.)); assay: as above; format: in vivo, Echinochloa oryzoides; conditions: rated 3-4 weeks after treatment
Procedure, shortened: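 Herbicidal effect is scored visually on a 0-9 scale against an untreated control, three to four weeks after compounds are pipetted into the flood water (1.5 to 3 cm deep) over seeds planted in silt loam at 0.5 cm depth. Rates: about 0.0313 to 0.500 kg/ha.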

COC(=O)CCCN1C(=O)CSC1=Nc1cc(-n2c(=O)cc(C(F)(F)F)n(C)c2=O)c(F)cc1Cl [Compound 29, Methyl 2-{{2-chloro-5-[3,6-dihydro-3-methyl-2,6-dioxo-4-(trifluoromethyl)-1(2H)-pyrimidinyl]-4-fluorophenyl}imino}-4-oxo-3-thiazolidinebutyrate]
Preemergence herbicidal rating GALAP ([1]; rate 0.0625 kg/ha): 0.0 | Preemergence herbicidal rating GALAP ([1]; rate 0.1250 kg/ha): 0.0 | Preemergence herbicidal rating GALAP ([1]; rate 0.2500 kg/ha): 0.0 | Postemergence herbicidal rating AMBEL ([2]; Rate 0.0158 kg/ha): 1.0 | Postemergence herbicidal rating AMBEL ([2]; Rate 0.0315 kg/ha): 4.0 | Postemergence herbicidal rating AMBEL ([2]; Rate 0.0630 kg/ha): 9.0 | Postemergence herbicidal rating TRZAWR ([3]; Rate 0.0158 kg/ha): 4.5 | Postemergence herbicidal rating TRZAWR ([3]; Rate 0.0315 kg/ha): 5.0 | Postemergence herbicidal rating TRZAWR ([3]; Rate 0.0630 kg/ha): 5.5 | Herbicidal rating SAGPY ([4]; 0.0313 kg/ha): 0.0 | Herbicidal rating SAGPY ([4]; 0.0625 kg/ha): 0.0 | Herbicidal rating SAGPY ([4]; 0.1250 kg/ha): 0.0 | Herbicidal rating SAGPY ([4]; 0.2500 kg/ha): 0.0 | Preemergence herbicidal rating SETVI ([5]; rate 0.0625 kg/ha): 0.0 | Preemergence herbicidal rating SETVI ([5]; rate 0.1250 kg/ha): 0.0 | Preemergence herbicidal rating SETVI ([5]; rate 0.2500 kg/ha): 9.0 | Herbicidal rating ECHORC ([6]; rate 0.0313 kg/ha): 4.0 | Herbicidal rating ECHORC ([6]; rate 0.0625 kg/ha): 7.0 | Herbicidal rating ECHORC ([6]; rate 0.1250 kg/ha): 7.0 | Herbicidal rating ECHORC ([6]; rate 0.2500 kg/ha): 7.0 | Postemergence herbicidal rating GALAP ([7]; Rate 0.0158 kg/ha): 1.0 | Postemergence herbicidal rating GALAP ([7]; Rate 0.0315 kg/ha): 1.0 | Postemergence herbicidal rating GALAP ([7]; Rate 0.0630 kg/ha): 7.0 | Postemergence herbicidal rating CASOB ([8]; Rate 0.0158 kg/ha): 0.0 | Postemergence herbicidal rating CASOB ([8]; Rate 0.0315 kg/ha): 0.0 | Postemergence herbicidal rating CASOB ([8]; Rate 0.0630 kg/ha): 0.0 | Herbicidal rating SAGPY ([9]; rate 0.0313 kg/ha): 0.0 | Herbicidal rating SAGPY ([9]; rate 0.0625 kg/ha): 0.0 | Herbicidal rating SAGPY ([9]; rate 0.1250 kg/ha): 0.0 | Herbicidal rating SAGPY ([9]; rate 0.2500 kg/ha): 0.0 | Postemergence herbicidal rating GLXMAW ([10]; Rate 0.0158 kg/ha): 6.5 | Postemergence herbicidal rating GLXMAW ([10]; Rate 0.0315 kg/ha): 7.5 | Postemergence herbicidal rating GLXMAW ([10]; Rate 0.0630 kg/ha): 8.0 | Herbicidal rating MOOVA ([11]; 0.0313 kg/ha): 0.0 | Herbicidal rating MOOVA ([11]; 0.0625 kg/ha): 0.0 | Herbicidal rating MOOVA ([11]; 0.1250 kg/ha): 0.0 | Herbicidal rating MOOVA ([11]; 0.2500 kg/ha): 0.0 | Preemergence herbicidal rating ORYSAT ([12]; rate 0.0625 kg/ha): 0.0 | Preemergence herbicidal rating ORYSAT ([12]; rate 0.1250 kg/ha): 0.0 | Preemergence herbicidal rating ORYSAT ([12]; rate 0.2500 kg/ha): 3.0 | Herbicidal rating CYPSE ([13]; 0.0313 kg/ha): 0.0 | Herbicidal rating CYPSE ([13]; 0.0625 kg/ha): 0.0 | Herbicidal rating CYPSE ([13]; 0.1250 kg/ha): 0.0 | Herbicidal rating CYPSE ([13]; 0.2500 kg/ha): 0.0 | Herbicidal rating ECHORC ([14]; 0.0313 kg/ha): 4.0 | Herbicidal rating ECHORC ([14]; 0.0625 kg/ha): 7.0 | Herbicidal rating ECHORC ([14]; 0.1250 kg/ha): 7.0 | Herbicidal rating ECHORC ([14]; 0.2500 kg/ha): 7.0

Cn1c(C(F)(F)F)cc(=O)n(-c2cc(N=C3NC(=O)CS3)c(Cl)cc2F)c1=O [Compound 39, 3-{4-Chloro-2-fluoro-5-[(4-oxo-2-thiazolidinylidene)amino]phenyl}-1-methyl-6-(trifluoromethyl)-2,4(1H,3H)-pyrimidinedione]
Preemergence herbicidal rating GALAP ([1]; rate 0.0156 kg/ha): 0.0 | Preemergence herbicidal rating GALAP ([1]; rate 0.0313 kg/ha): 0.0 | Preemergence herbicidal rating GALAP ([1]; rate 0.0625 kg/ha): 0.0 | Preemergence herbicidal rating GALAP ([1]; rate 0.1250 kg/ha): 6.0 | Preemergence herbicidal rating GALAP ([1]; rate 0.2500 kg/ha): 9.0 | Postemergence herbicidal rating AMBEL ([2]; Rate 0.0158 kg/ha): 0.0 | Postemergence herbicidal rating AMBEL ([2]; Rate 0.0315 kg/ha): 3.0 | Postemergence herbicidal rating AMBEL ([2]; Rate 0.0630 kg/ha): 7.0 | Postemergence herbicidal rating TRZAWR ([3]; Rate 0.0158 kg/ha): 2.0 | Postemergence herbicidal rating TRZAWR ([3]; Rate 0.0315 kg/ha): 1.5 | Postemergence herbicidal rating TRZAWR ([3]; Rate 0.0630 kg/ha): 2.5 | Herbicidal rating SAGPY ([4]; 0.0313 kg/ha): 0.0 | Herbicidal rating SAGPY ([4]; 0.0625 kg/ha): 0.0 | Herbicidal rating SAGPY ([4]; 0.1250 kg/ha): 0.0 | Herbicidal rating SAGPY ([4]; 0.2500 kg/ha): 4.0 | Preemergence herbicidal rating SETVI ([5]; rate 0.0156 kg/ha): 0.0 | Preemergence herbicidal rating SETVI ([5]; rate 0.0313 kg/ha): 0.0 | Preemergence herbicidal rating SETVI ([5]; rate 0.0625 kg/ha): 0.0 | Preemergence herbicidal rating SETVI ([5]; rate 0.1250 kg/ha): 0.0 | Preemergence herbicidal rating SETVI ([5]; rate 0.2500 kg/ha): 2.0 | Herbicidal rating ECHORC ([6]; rate 0.0313 kg/ha): 0.0 | Herbicidal rating ECHORC ([6]; rate 0.0625 kg/ha): 0.0 | Herbicidal rating ECHORC ([6]; rate 0.1250 kg/ha): 2.0 | Herbicidal rating ECHORC ([6]; rate 0.2500 kg/ha): 3.0 | Postemergence herbicidal rating GALAP ([7]; Rate 0.0158 kg/ha): 0.0 | Postemergence herbicidal rating GALAP ([7]; Rate 0.0315 kg/ha): 0.0 | Postemergence herbicidal rating GALAP ([7]; Rate 0.0630 kg/ha): 0.0 | Postemergence herbicidal rating CASOB ([8]; Rate 0.0158 kg/ha): 0.0 | Postemergence herbicidal rating CASOB ([8]; Rate 0.0315 kg/ha): 0.0 | Postemergence herbicidal rating CASOB ([8]; Rate 0.0630 kg/ha): 0.0 | Herbicidal rating SAGPY ([9]; rate 0.0313 kg/ha): 0.0 | Herbicidal rating SAGPY ([9]; rate 0.0625 kg/ha): 0.0 | Herbicidal rating SAGPY ([9]; rate 0.1250 kg/ha): 0.0 | Herbicidal rating SAGPY ([9]; rate 0.2500 kg/ha): 4.0 | Postemergence herbicidal rating GLXMAW ([10]; Rate 0.0158 kg/ha): 4.5 | Postemergence herbicidal rating GLXMAW ([10]; Rate 0.0315 kg/ha): 5.0 | Postemergence herbicidal rating GLXMAW ([10]; Rate 0.0630 kg/ha): 5.0 | Herbicidal rating MOOVA ([11]; 0.0313 kg/ha): 9.0 | Herbicidal rating MOOVA ([11]; 0.0625 kg/ha): 9.0 | Herbicidal rating MOOVA ([11]; 0.1250 kg/ha): 9.0 | Herbicidal rating MOOVA ([11]; 0.2500 kg/ha): 9.0 | Preemergence herbicidal rating ORYSAT ([12]; rate 0.0156 kg/ha): 0.0 | Preemergence herbicidal rating ORYSAT ([12]; rate 0.0313 kg/ha): 0.0 | Preemergence herbicidal rating ORYSAT ([12]; rate 0.0625 kg/ha): 0.0 | Preemergence herbicidal rating ORYSAT ([12]; rate 0.1250 kg/ha): 1.0 | Preemergence herbicidal rating ORYSAT ([12]; rate 0.2500 kg/ha): 2.0 | Herbicidal rating CYPSE ([13]; 0.0313 kg/ha): 0.0 | Herbicidal rating CYPSE ([13]; 0.0625 kg/ha): 0.0 | Herbicidal rating CYPSE ([13]; 0.1250 kg/ha): 0.0 | Herbicidal rating CYPSE ([13]; 0.2500 kg/ha): 0.0 | Herbicidal rating ECHORC ([14]; 0.0313 kg/ha): 0.0 | Herbicidal rating ECHORC ([14]; 0.0625 kg/ha): 0.0 | Herbicidal rating ECHORC ([14]; 0.1250 kg/ha): 2.0 | Herbicidal rating ECHORC ([14]; 0.2500 kg/ha): 3.0
